PMC10525257, “Hop Flower Supercritical Carbon Dioxide Extracts Coupled with Carriers with Solubilizing Properties—Antioxidant Activity and Neuroprotective Potential” (Antioxidants, 2023)
Values after ≈ are worked out from the molar mass of the structure shown.

Target: T1, tyrosinase from mushroom
T1 construct: gene PPO1
Test: dopachrome absorbance, […] nm, 96-well plate
Format: biochemical
Details: L-DOPA substrate (2.0 mM stock), phosphate buffer pH 6.8, room temperature

O=C(O)CCCCCCCC(=O)O [azelaic acid]
IC50: 6455 ± 249 µg/mL (≈ 34.3 mM)
